Laboratory results taken from patent publication EP4389751A1, “HETEROCYCLIC COMPOUNDS AND USES THEREOF” (Kumquat Biosciences Inc., priority 2021, dated 2024).
Where two headings read alike, the source gives them in different places.

How the values were obtained:
GP2D cells = assay: Cell proliferation assay (CellTiter-Glo), K-Ras G12D cells; assay type: cell-based; conditions: read-out: Inhibition of GP2D Cells (IC50)
Summary of the method: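 GP2D (K-Ras G12D) cells seeded in DMEM with 2 mM glutamine and 10% FBS, then dosed next day with a dilution series (e.g., 9-point 3-fold). Viability read by CellTiter-Glo luminescence after about 5 days. IC50 from four-parameter fit.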

K-Ras G12S = target: T1, K-Ras G12S (Homo sapiens, UniProt P01116, G12S); assay: HTRF assay of the K-Ras / SOS1 interaction; assay type: biochemical; conditions: IC50 (against K-Ras G12D) to IC50 (against K-Ras G12S)
T1 construct: made in house; host or cells: E. coli (e.g., BL21 (DE3))
T1 sequence (P01116 1-188 isoform P01116-2 G12S): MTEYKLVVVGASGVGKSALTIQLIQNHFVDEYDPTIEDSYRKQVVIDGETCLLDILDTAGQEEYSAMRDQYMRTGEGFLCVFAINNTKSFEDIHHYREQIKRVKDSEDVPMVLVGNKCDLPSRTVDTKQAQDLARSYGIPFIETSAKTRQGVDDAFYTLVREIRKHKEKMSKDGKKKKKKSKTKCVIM
Summary of the method: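 GST-K-Ras G12S with anti-GST-Eu donor and His-hSOS1 with anti-6His-XL665 acceptor in ~5 mM HEPES pH 7.4, ~150 mM NaCl, 1 mM DTT, 0.05% BSA, 0.0025% Igepal. Read after ~10 min or longer; IC50 from 665/620 nm ratio, duplicates at 10 µM down to 0.01 µM.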

SMILES | IC50 (GP2D cells; GP2D cells (K-Ras G12D)) | Ratio of IC50 KRAS G12D vs. IC50 KRAS G12S (K-Ras G12S) | IC50 (GP2D cells; GP2d)
Nc1nc2c(-c3c(Cl)cc4c(N5CCC6(CCN(C(=O)n7cncn7)CC6)CC5)nc(OC[C@@]56CCCN5C[C@H](F)C6)nc4c3F)ccc(F)c2s1 [Compound A250, (9-(7-(2-amino-7-fluorobenzo[d]thiazol-4-yl)-6-chloro-8-fluoro-2-(((2R,7aS)-2-fluorotetrahydro-1H-pyrrolizin-7a(5H)-yl)methoxy)quinazolin-4-yl)-3,9-diazaspiro[5.5]undecan-3-yl)(1H-1,2,4-triazol-1-yl)methanone] | 1000 to 10000 nM | A (A: indicates that the ratio of IC50 against KrasG12D vs. IC50 against KrasG12S is 1-fold or greater) | –
Nc1nc2c(-c3c(Cl)cc4c(N5CCCC56CCCN(C(=O)n5cncn5)C6)nc(OC[C@@]56CCCN5C[C@H](F)C6)nc4c3F)ccc(F)c2s1 (stereo partly drawn) [Compound A144, (1-(7-(2-amino-7-fluorobenzo[d]thiazol-4-yl)-6-chloro-8-fluoro-2-(((2R,7aS)-2-fluorotetrahydro-1H-pyrrolizin-7a(5H)-yl)methoxy)quinazolin-4-yl)-1,7-diazaspiro[4.5]decan-7-yl)(1H-1,2,4-triazol-1-yl)methanone] | 1000 to 10000 nM | A (A: indicates that the ratio of IC50 against KrasG12D vs. IC50 against KrasG12S is 1-fold or greater) | –
Nc1nc2c(-c3c(Cl)cc4c(NCCN5CC6CCC(C5)N6C(=O)n5cncn5)nc(OC[C@@]56CCCN5C[C@H](F)C6)nc4c3F)ccc(F)c2s1 [Compound A168, (3-(2-((7-(2-amino-7-fluorobenzo[d]thiazol-4-yl)-6-chloro-8-fluoro-2-(((2R,7aS)-2-fluorotetrahydro-1H-pyrrolizin-7a(5H)-yl)methoxy)quinazolin-4-yl)amino)ethyl)-3,8-diazabicyclo[3.2.1]octan-8-yl)(1H-1,2,4-triazol-1-yl)methanone] | – | A (A: indicates that the ratio of IC50 against KrasG12D vs. IC50 against KrasG12S is 1-fold or greater) | 1000 to 10000 nM
Nc1nc2c(-c3c(Cl)cc4c(NCCN5CCN(C(=O)n6cncn6)CC5)nc(OC[C@@]56CCCN5C[C@H](F)C6)nc4c3F)ccc(F)c2s1 [Compound A156, (4-(2-((7-(2-amino-7-fluorobenzo[d]thiazol-4-yl)-6-chloro-8-fluoro-2-(((2R,7aS)-2-fluorotetrahydro-1H-pyrrolizin-7a(5H)-yl)methoxy)quinazolin-4-yl)amino)ethyl)piperazin-1-yl)(1H-1,2,4-triazol-1-yl)methanone] | 1000 to 10000 nM | A (A: indicates that the ratio of IC50 against KrasG12D vs. IC50 against KrasG12S is 1-fold or greater) | –
N#Cc1cnn(C(=O)N2CC3COCC(C2)N3c2nc(OC[C@@]34CCCN3C[C@H](F)C4)nc3c(F)c(-c4ccc(F)c5sc(N)c(C#N)c45)c(Cl)cc23)c1 [Compound A249, 1-(9-(7-(2-amino-3-cyano-7-fluorobenzo[b]thiophen-4-yl)-6-chloro-8-fluoro-2-(((2R,7aS)-2-fluorotetrahydro-1H-pyrrolizin-7a(5H)-yl)methoxy)quinazolin-4-yl)-3-oxa-7,9-diazabicyclo[3.3.1]nonane-7-carbonyl)-1H-pyrazole-4-carbonitrile] | ≤ 1000 nM | A (A: indicates that the ratio of IC50 against KrasG12D vs. IC50 against KrasG12S is 1-fold or greater) | –
Cc1cnn(C(=O)N2CCN(c3nc(OC[C@@]45CCCN4C[C@H](F)C5)nc4c(F)c(-c5ccc(F)c6sc(N)nc56)c(Cl)cc34)CC(F)(F)C2)c1 [Compound A203, (4-(7-(2-amino-7-fluorobenzo[d]thiazol-4-yl)-6-chloro-8-fluoro-2-(((2R,7aS)-2-fluorotetrahydro-1H-pyrrolizin-7a(5H)-yl)methoxy)quinazolm-4-yl)-6,6-difluoro-1,4-diazepan-1-yl)(4-methyl-1H-pyrazol-1-yl)methanone] | 1000 to 10000 nM | A (A: indicates that the ratio of IC50 against KrasG12D vs. IC50 against KrasG12S is 1-fold or greater) | –
Nc1nc2c(-c3c(Cl)cc4c(N5C6CCC5CN(C(=O)n5cncn5)C6)nc(OC[C@@]56CCCN5C[C@H](F)C6)nc4c3F)ccc(F)c2s1 [Compound A239, (8-(7-(2-amino-7-fluorobenzo[d]thiazol-4-yl)-6-chloro-8-fluoro-2-(((2R,7aS)-2-fluorotetrahydro-1H-pyrrolizin-7a(5H)-yl)methoxy)quinazolm-4-yl)-3,8-diazabicyclo[3.2.1]octan-3-yl)(1H-1,2,4-triazol-1-yl)methanone] | ≤ 1000 nM | A (A: indicates that the ratio of IC50 against KrasG12D vs. IC50 against KrasG12S is 1-fold or greater) | –
C#Cc1c(F)ccc2cc(O)cc(-c3ncc4c(N5C6COCC5CN(C(=O)n5cc(C#N)cn5)C6)nc(OC[C@@]56CCCN5C[C@H](F)C6)nc4c3F)c12 [Compound A226, 1-(9-(7-(8-ethynyl-7-fluoro-3-hydroxynaphthalen-1-yl)-8-fluoro-2-(((2R,7aS)-2-fluorotetrahydro-1H-pyrrolizin-7a(5H)-yl)methoxy)pyrido[4,3-d]pyrimidin-4-yl)-3-oxa-7,9-diazabicyclo[3.3.1]nonane-7-carbonyl)-1H-pyrazole-4-carbonitrile] | 1000 to 10000 nM | A (A: indicates that the ratio of IC50 against KrasG12D vs. IC50 against KrasG12S is 1-fold or greater) | –
